Key:
[1] = tested on: PDCs (T2-4, T12-1, T12-2) and GSC2 cells; assay: Limiting dilution assay (self-renewal); assay type: cell-based; conditions: pretreatment for 4 h
Protocol: (§1) For the tumor sphere formation assay, cells were inoculated in 96-well plates at 600 cells/well in a volume of 100 μL. The tumor spheres with a diameter of 50–100 μm and a diameter of over 100 μm were counted separately under a microscope after 14 days. For the limiting dilution assay, cells were dissociated to generate a single-cell suspension, which was diluted along a gradient for seeding in a 96-well plate at concentrations ranging from 400 cells to 25 cells in a volume of 100 μL per well.

PDCs = assay: Tumor sphere formation assay; assay type: cell-based, human
Protocol: as §1

[2] = tested on: TMZ-resistant cells (T2-4, GSC2 and T12-1); assay: Time curve cell viability assay (MTS); assay type: cell-based; conditions: PDCs and GSCs
Protocol: Fig. 2 The BBB permeability and tumor suppressor ability of GA-amide compared with TMZ. GA-amide (a) or TMZ (b) concentration in the tumor area and normal brain tissue following a single injection of GA-amide (10 mg/kg, i.v.) or TMZ (10 mg/kg, i.v.). The data are presented as the means ± SEMs (n = 3). c Western blot analysis of the expression of TrkA in mouse tumor tissues (T) and normal brain tissues (N), n = 4. d Western blot analysis of glycosylated TrkA expression in human normal brain tissues (N) and glioma tissues of different grades. e Time curve of GA-amide and TMZ treatment in a cell viability assay (MTS) in T2-4, GSC2 and T12-1 cells. f–h A PDX mouse model was established, and the mice were treated with vehicle (control, n = 9), 2 mg/kg GA-amide (n = 9), 2 mg/kg GAC (n = 9) or […] TMZ (n = 8) by i.p. injection daily for 10 days. A summary photograph is presented in (f), statistical results in (g) and the body weights of mice in (h); the mean ± SEMs are shown. n.s: P ≥ 0.05, *P < 0.05, **P < 0.01 and ***P < 0.001 compared with the control group by one-way ANOVA at each time point

[3] = Acute toxicity assay, body weight; assay type: in vivo, mice; conditions: low dose 1 mg/kg, high dose 10 mg/kg, one-time i.v.
Protocol: a Hematoxylin and eosin staining of sections from control and GA-amide-treated livers, kidney and small intestines, scale bars were shown in the panel. b Persistent records of the body weights and the statistical results of the body weight changes after one-time i.v. treatments of control (DMSO), 1 mg/kg GA-amide and 10 mg/kg GA-amide (n = 6, for control and 1mg/kg GA-amide; n = 5, for 10mg/kg GA-amide) were shown.

[4] = tested on: GSC2 intracranial xenograft; assay: GSC2-derived intracranial xenograft model; assay type: in vivo, nude mice; conditions: 1 mg/kg i.v. daily for 13 days
Protocol: (§2) Fig. 3 The inhibitory effects of GA-amide in glioma stem cell-derived mouse models and transgenic mouse models. a, b GSC2 cells were implanted s.c. into nude mice. Mice were treated with control (DMSO) (n = 7) or GA-amide (2 mg/kg) (n = 8) via i.p. injection once daily for 11 days, after which a photograph (a) was taken to show the tumor volume, and the tumor volume was calculated by a modified ellipsoid formula in (b). c, d GSC2 cells were implanted intracranially into nude mice. Mice were injected i.v. with control (n = 8) or 1 mg/kg GA-amide (n = 8) daily for 13 days, the Mantel‒Cox log–rank test was used for analysis, and the relative survival curves are shown in (c). The body weights are shown in (d). e In vivo efficacy studies of GA-amide using transgenic mouse models. Glioma was induced in transgenic C57BL/6 mice by injection of pTomo-Ras-sip53 lentivirus, and the strategy is shown. f, g MRI analysis was used to group mice into the control (n = 7) and GA-amide-treated groups (n = 8) before treatment. […]
For the intracranial xenograft mouse models, 1 × 10^5 GSC2 or U87MG-SLC cells were injected into the frontal cortex (1 mm rostral to the bregma, 2 mm lateral to the midline, and 3 mm deep) using a microsyringe (Hamilton). […] The tumor size was measured by MRI, and survival analysis was performed in a blinded manner.

[5] = tested on: intracranial orthotopic glioma PDX; assay: Intracranial orthotopic PDX model (GBM2); assay type: in vivo, NSG mice; conditions: 1 mg/kg i.v. daily for 10 days
Protocol: as §2
For the intracranial PDX model, the tumor tissue (GBM2) will be mechanically minced using scissors and then […] NSG mice (Male, 6–8 weeks). […] After 7 days of tumor development, the mice were grouped dependent on the tumor size measured by MRI. […] After treatment, the tumor size was measured by MRI again.

[6] = tested on: WDR1 deficient U87MG-SLC cells; assay: sgWDR1 U87MG-SLC subcutaneous xenograft; assay type: in vivo, nude mice; conditions: 2 mg/kg i.p. once daily for 10 days

## CC(C)=CCC[C@]1(C)C=Cc2c(O)c3c(c(CC=C(C)C)c2O1)O[C@]12C(=C[C@@H]4CC1C(C)(C)O[C@@]2(C/C=C(/C)C(N)=O)C4=O)C3=O [GA-amide, gambogic amide]
[1]
  self-renewal (limiting dilution): suppressed
PDCs; T2-4 and T12-2, cells from secondary spheres pretreated 4 h
  tertiary tumor sphere formation: still suppressed
PDCs; pretreatment 4 h with 0.3 μM, 1 μM and 3 μM
  secondary tumor sphere formation potential: completely abolished
[2]
  viability of TMZ-resistant cells over time: effectively reduced the viability of TMZ-resistant cells
[3]
  body weight after a single injection: did not change the body weight
[4]
  mouse body weight versus control: no significant difference in mouse body weight
  survival: prolonged survival times
[5]
  tumor volume by MRI versus control: significantly smaller compared to the control mice
[6]
  tumor growth of WDR1 deficient xenograft: could not inhibit the tumor growth
